Assay results taken from US3959290A, “3,14-Substituted-8-oxamorphinans” (Bristol-Myers Company, priority 1974, dated 1976).
Structures can show the parent of a compound that is named as a salt. Where two headings read alike, the source gives them in different places.

Tests used:
[1] = test system: phenylquinone induced writhings; test: Phenylquinone writhing (50 per cent reduction in number of phenylquinone induced writhings), mouse; assay type: in vivo; settings: for ED50 / ED50 Agonist Activity, Phenylquinone Writhing, Mouse, SC: weights in terms of the free base
Procedure: (§1) In vivo testing was conducted on the compounds designated herein as XVc (racemic mixture), d-XVc (dextrorotatory isomer), l-XVc (levorotatory isomer) and dl-XVd (see examples for structures) to determine their agonist and/or antagonist properties. The figures reported are the number of milligrams/kilogram of body weight of compound that produced an agonist or antagonist effect in 50% of the mice and rats so tested (ED50).
(§2) All the compounds were tested as the tartrates, but the weights reported in mg./kg. are corrected and reported in terms of the free base.
(§3) ^1 A 50 per cent reduction in number of phenylquinone induced writhings (Siegmund, E. A. et al., Proc. Soc. Biol. & Med. 95, 729; 1957).

[2] = test system: phenylquinone induced writhings; test: Phenylquinone writhing (50 per cent reduction in number of phenylquinone induced writhings), rat; assay type: in vivo; settings: weights in terms of the free base; for ED50: Rattus norvegicus
Procedure: as §1, §2, §3

[3] = test system: Straub Tail induced by oxymorphone; test: Antagonism of Straub Tail induced by oxymorphone in 50 per cent of mice; assay type: in vivo; settings: oxymorphone 2 mg./kg. sc., weights in terms of the free base; for ED50: Mus musculus
Procedure: as §1, §2
^2 Antagonism of Straub Tail induced by oxymorphone (2 mg./kg. sc.) in 50 per cent of mice.

[4] = test system: righting reflex loss induced by oxymorphone; test: animal or person; assay type: in vivo; settings: Rattus norvegicus, rats, oxymorphone 1.5 mg./kg. sc., weights in terms of the free base
Procedure: as §1, §2
^3 Antagonism of righting reflex loss induced by oxymorphone (1.5 mg./kg. sc.) in 50 per cent of rats.

[5] = test system: analgesic effect induced by morphine; test: animal or person; assay type: in vivo; settings: morphine 15 mg./kg. sc., weights in terms of the free base; for ED50: Rattus norvegicus
Procedure: as §1, §2

[6] = In vivo testing for agonist and/or antagonist properties (overall conclusion from Table I); design: species or system mice and rats; settings: parenteral and oral administration
Procedure: as §1

[7] = Mus musculus, sc, read-out: ED50 Agonist Activity, Phenylquinone Writhing, Mouse, SC
[8] = po, read-out: ED50 Agonist Activity, Phenylquinone Writhing, Rat, PO
[9] = sc, read-out: ED50 Agonist Activity, Phenylquinone Writhing, Rat, SC
[10] = sc, read-out: ED50 Antagonist Activity, Oxymorphone Straub Tail, SC
[11] = SC, read-out: ED50 Antagonist Activity, Oxymorphone Narcosis, SC
[12] = po, read-out: ED50 Antagonist Activity, Morphine Antagonism Rat Tail Flick, PO
[13] = sc, read-out: ED50 Antagonist Activity, Morphine Antagonism Rat Tail Flick, SC

`C[C@@]12OCCC[C@@]13CCN(CC1CC1)[C@@H]2Cc1ccc(O)cc13` (racemic) [XVc tartrate, N-Cyclopropylmethyl-3-hydroxy-14β-methyl-8-oxamorphinan] gave an ED50 [1, 7] of 0.19 mg/kg, an ED50 [2, 8] of 4 mg/kg and an ED50 [2, 9] of 0.03 mg/kg. For the same molecule, the ED50 [3, 10] was 0.61 mg/kg, the ED50 [4, 11] was 0.36 mg/kg and the ED50 [5, 12] was 7.3 mg/kg. The ED50 [5, 13] was 0.05 mg/kg.

For `C=CCN1CC[C@]23CCCC[C@H]2[C@H]1Cc1ccc(O)cc13` [Levallorphan, reference compound], the “dose response, Phenylquinone Writhing, Mouse, SC” value ([1]; SC, remark under the ED50) was “poor dose” and the ED50 ([1]; SC, read-out: ED50 Agonist Activity, Phenylquinone Writhing, Mouse, SC) was 26.3 mg/kg.

With `C=CCN1CC[C@]23c4c5ccc(O)c4O[C@H]2[C@@H](O)C=C[C@H]3[C@H]1C5` [Nalorphine, reference compound] the ED50 [3, 10] was 1.14 mg/kg.

`CC(C)=CCN1CCC2(C)c3cc(O)ccc3CC1C2C` (stereo not shown) [Pentazocine, reference compound] gave an ED50 [4, 11] of 10 mg/kg and an ED50 [5, 13] of 12.2 mg/kg.

In the case of `C[C@@]12OCCC[C@@]13CCN(CC1CC1)[C@@H]2Cc1ccc(O)cc13` [d-XVc tartrate, N-Cyclopropylmethyl-3-hydroxy-14β-methyl-8-oxamorphinan], the “ED50 Agonist Activity, Phenylquinone Writhing, Mouse, SC” value ([1]; SC) is reported as > 40 mg/kg, the “ED50 Antagonist Activity, Oxymorphone Straub Tail, SC” value [3] is reported as > 10 mg/kg and the “ED50 Antagonist Activity, Morphine Antagonism Rat Tail Flick, SC” value [5] is reported as > 20 mg/kg.

For `C[C@@]12OCCC[C@@]13CCN(CC1CC1)[C@@H]2Cc1ccc(O)cc13` [l-XVc tartrate, N-Cyclopropylmethyl-3-hydroxy-14β-methyl-8-oxamorphinan], the ED50 ([1]; Mus musculus, po, read-out: ED50 Agonist Activity, Phenylquinone Writhing, Mouse, PO) was 2.7 mg/kg, the “ED50 Agonist Activity, Phenylquinone Writhing, Mouse, SC” value ([1]; SC) was 0.11 mg/kg and the ED50 [2, 8] was 1.3 mg/kg. The “ED50 Agonist Activity, Phenylquinone Writhing, Rat, SC” value ([2]; SC) was 0.02 mg/kg, the ED50 ([3]; po, read-out: ED50 Antagonist Activity, Oxymorphone Straub Tail, PO) was 14.6 mg/kg and the “ED50 Antagonist Activity, Oxymorphone Straub Tail, SC” value [3] was “≈ 0.2 mg./kg”. It also gave an ED50 ([4]; PO, read-out: ED50 Antagonist Activity, Oxymorphone Narcosis, PO) of 1.25 mg/kg, an ED50 [4, 11] of 0.014 mg/kg and an ED50 [5, 12] of 6.3 mg/kg. The “ED50 Antagonist Activity, Morphine Antagonism Rat Tail Flick, SC” value [5] was 0.021 mg/kg and the “agonist and antagonist activity” value [6] was “potent agonist and antagonist activity”.

Work on `Cl.Oc1ccc2c(c1)[C@@]13CCCO[C@H]1[C@H](C2)N(CC1CC1)CC3` [l-XVk hydrochloride, l-N-cyclopropylmethyl-3-hydroxy-8-oxamorphinan hydrochloride] yielded an ED50 [1, 7] of 0.013 mg/kg, an ED50 [2, 9] of 0.009 mg/kg and an ED50 [3, 10] of 0.2 mg/kg. It also gave an ED50 [4, 11] of 0.03 mg/kg and an ED50 [5, 13] of 0.97 mg/kg.
